# In patent US20090209541A1, “APREPITANT COMPOSITIONS” (Dr. Reddy's Laboratories Ltd., priority 2006, published 2009):
# Legend:
# [1] = Solubility of powder compositions of aprepitant at 25° C. in water (HPLC method); format: physicochemical; settings: thermodynamic from solid
# Description: Solubility of Powder Compositions of Aprepitant at 25° C. in Water
# • A. Aprepitant: Neat aprepitant was passed through a BSS # 80 mesh sieve, and its solubility in water was determined using a HPLC method. • B. Aprepitant: PVP K30 (1:1 w/w) solid dispersion: 2 g aprepitant and 2 g PVP K 30 were dissolved in a mixture of 200 ml dichloromethane and 20 ml methanol. This solution was dried in a rotary flash evaporator at 50° C. The dried solid dispersion was passed through a BSS # 80 mesh sieve. • C. Premix of A and B (1:6 w/w): Neat aprepitant and solid dispersion from B was mixed in the weight proportions of 1:6. This mixture was passed through a BSS # 80 mesh sieve. • D. Premix of A and B (1:2 w/w): Neat aprepitant and solid dispersion from B was mixed in the weight proportions of 1:2. This mixture was passed through a BSS # 80 mesh sieve. • E. Premix of A and B (3:2 w/w): Neat aprepitant and solid dispersion from B was mixed in the weight proportions of 3:2. This mixture was passed through a BSS # 80 mesh sieve. • F. Aprepitant: Polysorbate 80 (1:1 w/w): 1 g aprepitant and 1 g polysorbate 80 were mixed together by trituration. […]
# Injected blank once, standard solution, all sample preparations in different pH solutions each twice into the chromatographic system. Aprepitant solubility in mg/ml was calculated using following formula: […]
# [2] = cited from earlier work
# [3] = cited from earlier work; remark: listed apart in the source
# [4] = U.S. Pat. Nos. 6,096,742 and 6,583,142; cited from earlier work
structure (smiles),measurement,setting,value
"C[C@@H](O[C@H]1OCCN(Cc2n[nH]c(=O)[nH]2)[C@H]1c1ccc(F)cc1)c1cc(C(F)(F)F)cc(C(F)(F)F)c1 [A, Aprepitant]",solubility,[1],0.5 µg/mL
"C[C@@H](O[C@H]1OCCN(Cc2n[nH]c(=O)[nH]2)[C@H]1c1ccc(F)cc1)c1cc(C(F)(F)F)cc(C(F)(F)F)c1 [Aprepitant, 5-[[(2R,3S)-2-[(1R)-1-[3,5-bis(trifluoromethyl)phenyl]ethoxy]-3-(4-fluorophenyl)-4-morpholinyl]methyl]-1,2-dihydro-3H-1,2,4-triazol-3-one]",solubility in acetonitrile (descriptive),[2]; acetonitrile,slightly soluble
same,solubility in ethanol (descriptive),[2]; ethanol,sparingly soluble
same,solubility in isopropyl acetate (descriptive),[2]; isopropyl acetate,sparingly soluble
same,solubility in water (descriptive),[2]; water,practically insoluble
same,permeability characteristics,[3],poor permeability
"C[C@@H](O[C@H]1OCCN(Cc2n[nH]c(=O)[nH]2)[C@H]1c1ccc(F)cc1)c1cc(C(F)(F)F)cc(C(F)(F)F)c1 [Form I, aprepitant]",solubility relative to Form II,[4],lower solubility as compared to Form II
same,thermodynamic stability relative to Form II,[4],thermodynamically more stable than Form II
